According to US11400112B2, “Combination therapy for treatment of leukemia” (St George's Hospital Medical School, priority 2018, dated 2022):

Experiments:
[1] = tested on: malignant cells (NB4 naïve, NB4-EVAsR1, U937, THP-1, Kasumi, Jurkat cell lines); test: Apoptosis assay on leukemic cell lines (FIG. 5); format: cell-based; settings: 2 μM ATO, 5 μM ART, 48 hours
Method: (§1) In particular, the effects of Metformin, Dichloroacetate (DCA) and Artesunate (ART) in combination with arsenic trioxide were evaluated. […] Methods i) In vitro cytotoxicity assay: 10^5 cells/well were seeded in a 96 well plate and treated with increasing concentration of artesunate and arsenic trioxide and incubated for 48 hours. At the end of 48 hrs MTT was added, followed by SDS to solubilize the formazan crystals formed by the viable cells. The absorbance was measured on an ELISA plate reader SpectraMaxM4 (Molecular Devices) at a test wavelength of 570 nm and a reference wavelength of 630 nm to measure the optical density. […] An IC-50 value was generated if significant cytotoxicity was detected. […] CO2 incubator, the viability of the leukemic cells was measured using an Annexin V/7-aminoactinomycin D (7AAD) apoptosis assay kit (BD Pharmingen, San Diego, Calif., USA) as per the manufacturer's protocol. The flow cytometry data were analysed using Cell Quest pro software (BD Biosciences, San Jose, Calif., USA). iii) Measurement of Glucose Uptake: 5×10^5 cells were stained with 2-NBDG (fluorescent analogue of 2-Deoxyglucose) for 10 minutes, washed and the fluorescence measured at 485 nm/595 nm using Spectramax M4. […] The ratio of red to green fluorescence (590/530) was calculated and the Δψm of treated cells compared with the untreated cells.

[2] = tested on: U937 cells; test: Viability of U937 cells (apoptosis assay, Annexin V/7AAD); format: cell-based; settings: 48 hours
Method: The half-maximal inhibitory concentration (IC-50) values were generated using Graph Pad Prism5 software (La Jolla, Calif., USA). ii) Apoptosis Assay: Leukemic cell lines were added (2×10^5 cells/well) in 24-well plates and treated with different drugs reported to disrupt the metabolic adaptation of the leukemia cells along with appropriate controls. After 48 h of incubation at 37° C. CO2 incubator, the viability of the leukemic cells was measured using an Annexin V/7-aminoactinomycin D (7AAD) apoptosis assay kit (BD Pharmingen, San Diego, Calif., USA) as per the manufacturer's protocol. The flow cytometry data were analysed using Cell Quest pro software (BD Biosciences, San Jose, Calif., USA). iii) Measurement of Glucose Uptake: 5×10^5 cells were stained with 2-NBDG (fluorescent analogue of 2-Deoxyglucose) for 10 minutes, washed and the fluorescence measured at 485 nm/595 nm using Spectramax M4.

[3] = tested on: ATO resistant cell lines (NB4-EVAsR1, UF-1); test: Viability of ATO resistant cell lines (apoptosis assay); format: cell-based; settings: NB4-EVAsR1 and UF-1; 48 hours
Method: as §1

[4] = tested on: NB4 naïve cells; test: Viability of NB4 naïve cells (apoptosis assay, Annexin V/7AAD); format: cell-based; settings: 48 hours
Method: as §1

[5] = tested on: acute promyelocytic leukemia (APL); settings: standard of care; cited from earlier work
[6] = mouse, in vivo
Method: To further validate this in vitro observation, in vivo studies were performed on a mouse model of acute promyelocytic leukemia.

CN(C)C(=N)N=C(N)N [Metformin]
effect on the malignant cells (Annexin V-/7AAD- cells) [1]: did not have a significant effect

hemin
viability of AML cells (Annexin V-/7AAD- cells) ([2]; hemin instead of ALA, FIG. 8): did not affect

O=CC[C@@H](O)[C@H](O)[C@H](O)CO [2-DOG, 2-Deoxy-D-glucose]
viability of the ATO resistant cell lines [3]: resistant | viability of NB4 naïve cells [4]: sensitive

Arsenic trioxide [ATO]
outcome in the management of APL [5]: greater than 80%

N#CC(C#N)=NNc1ccc(OC(F)(F)F)cc1 [FCCP, Carbonyl cyanide-4-(trifluoromethoxy)phenylhydrazone]
viability of the ATO resistant cell lines [3]: remained unaffected

C[C@H]1[C@H](OC(=O)CCC(=O)O)O[C@@H]2O[C@@]3(C)CC[C@H]4[C@H](C)CC[C@@H]1[C@@]24OO3 [ART, artesunate]
effect on the malignant cells (Annexin V-/7AAD- cells) [1]: did not have a significant effect

NCC(=O)CCC(=O)O [ALA, Delta-aminolevulinic acid]
toxicity in mice [6]: significant toxicity | viability of AML cells (Annexin V-/7AAD- cells) ([2]; ATO 1 μM, ART 5 μM, ALA 1 mM, DFO 20 μM, FIG. 7): did not affect
